Legend:
[1] = molecular target: T1, G12D-mutant human KRAS (amino acid residues 1-188) (Homo sapiens, UniProt P01116, G12D); assay: KRAS Binding Disruption Assay (AlphaScreen; biotinylated KRpep-2d analogue or RAF1-RBD), G12D; settings: KRAS G12D; geometric mean; read-out: KRAS GMean IC50 (uM) MUTATION: G12D
T1 construct: G12D or G12C-mutant human KRAS (amino acid residues 1-188) with FLAG tag; made in house; host or cells: E. coli
How it was run: (§1)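 Mutant KRAS (5-20 nM) incubated 1 h at 25° C with test compound and 5-20 nM biotinylated KRpep-2d analogue or RAF1-RBD in 20 mM HEPES pH 7.5, 100 mM NaCl, 5 mM MgCl2, 0.01% Tween-20, 0.01% BSA.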

[2] = molecular target: T2, G12C-mutant human KRAS (amino acid residues 1-188) (Homo sapiens, UniProt P01116, G12C); assay: KRAS Binding Disruption Assay (AlphaScreen; biotinylated KRpep-2d analogue or RAF1-RBD), G12C; settings: geometric mean, read-out: KRAS GMean IC50 (uM) MUTATION: G12C
T2 construct: G12D or G12C-mutant human KRAS (amino acid residues 1-188) with FLAG tag; made in house; host or cells: E. coli
How it was run: as §1

[3] = molecular target: T3, G12V-mutant human KRAS (amino acid residues 1-188) (Homo sapiens, UniProt P01116, G12V); assay: KRAS Binding Competition Assay (AlphaScreen; biotinylated KRpep-2d analogue), G12V; settings: geometric mean, read-out: KRAS GMean IC50 (uM) MUTATION: G12V
T3 construct: G12V-mutant human KRAS (amino acid residues 1-188) with FLAG tag was purified from E. coli; made in house; host or cells: E. coli

Row | IC50 [1] [µM] | IC50 [2] [µM] | IC50 [3] [µM] | Compound
1 | 0.0001 to 10 | 0.0001 to 10 | 0.0001 to 10 | COC(=O)CCC(=O)N1[C@@H]2CC[C@H]1CN(c1nc(OCC34CCCN3CCC4)nc3cc(-c4cc(O)cc5ccccc45)ccc13)C2 [P-0068, methyl 4-((1R,5S)-3-(7-(3-hydroxynaphthalen-1-yl)-2-((tetrahydro-1H-pyrrolizin-7a(5H)-yl)methoxy)quinazolin-4-yl)-3,8-diazabicyclo[3.2.1]octan-8-yl)-4-oxobutanoate]
2 | 0.0001 to 10 | 0.0001 to 10 | 0.0001 to 10 | Cc1cccc2cc(O)cc(-c3ccc4c(N5C[C@H]6CC[C@@H](C5)N6)nc(OCC56CCCN5CCC6)nc4c3F)c12 [P-0085, 4-(4-((1R,5S)-3,8-diazabicyclo[3.2.1]octan-3-yl)-8-fluoro-2-((tetrahydro-1H-pyrrolizin-7a(5H)-yl)methoxy)quinazolin-7-yl)-5-methylnaphthalen-2-ol]
3 | 0.0001 to 10 | 0.0001 to 10 | 0.0001 to 10 | Cc1cccc2cc(O)cc(-c3c(F)cc4c(N5C[C@H]6CC[C@@H](C5)N6)nc(OCC56CCCN5CCC6)nc4c3F)c12 [P-0088, 4-(4-((1R,5S)-3,8-diazabicyclo[3.2.1]octan-3-yl)-6,8-difluoro-2-((tetrahydro-1H-pyrrolizin-7a(5H)-yl)methoxy)quinazolin-7-yl)-5-methylnaphthalen-2-ol]
4 | 0.0001 to 10 | 0.0001 to 10 | 10 to 100 | CCCNS(=O)(=O)N1[C@@H]2CC[C@H]1CN(c1nc(OCC34CCCN3CCC4)nc3cc(-c4cc(O)cc5ccccc45)ccc13)C2 [P-0096, (1R,5S)-3-(7-(3-hydroxynaphthalen-1-yl)-2-((tetrahydro-1H-pyrrolizin-7a(5H)-yl)methoxy)quinazolin-4-yl)-N-propyl-3,8-diazabicyclo[3.2.1]octane-8-sulfonamide]
5 | 0.0001 to 10 | 0.0001 to 10 | 0.0001 to 10 | O=C(c1n[nH]c(=O)[nH]1)N1[C@@H]2CC[C@H]1CN(c1nc(OCC34CCCN3CCC4)nc3cc(-c4cc(O)cc5ccccc45)ccc13)C2 [P-0099, 5-((1R,5S)-3-(7-(3-hydroxynaphthalen-1-yl)-2-((tetrahydro-1H-pyrrolizin-7a(5H)-yl)methoxy)quinazolin-4-yl)-3,8-diazabicyclo[3.2.1]octane-8-carbonyl)-2,4-dihydro-3H-1,2,4-triazol-3-one]
6 | 0.0001 to 10 | 0.0001 to 10 | 0.0001 to 10 | NCC(O)CC(=O)N1[C@@H]2CC[C@H]1CN(c1nc(OCC34CCCN3CCC4)nc3cc(-c4cc(O)cc5ccccc45)ccc13)C2 (stereo partly drawn) [P-0100, 4-amino-3-hydroxy-1-((1R,5S)-3-(7-(3-hydroxynaphthalen-1-yl)-2-((tetrahydro-1H-pyrrolizin-7a(5H)-yl)methoxy)quinazolin-4-yl)-3,8-diazabicyclo[3.2.1]octan-8-yl)butan-1-one]
7 | 0.0001 to 10 | 0.0001 to 10 | 0.0001 to 10 | Oc1cc(-c2ccc3c(N4C[C@H]5CC[C@@H](C4)N5)nc(OCC45CCCCN4CCC5)nc3c2)c2ccccc2c1 (stereo partly drawn) [P-0102, 4-(4-((1R,5S)-3,8-diazabicyclo[3.2.1]octan-3-yl)-2-((hexahydroindolizin-8a(1H)-yl)methoxy)quinazolin-7-yl)naphthalen-2-ol]
8 | 0.0001 to 10 | 0.0001 to 10 | 0.0001 to 10 | CN1CCC[C@H]1COc1nc(N2C[C@H]3CC[C@@H](C2)N3C(N)=O)c2ccc(-c3cc(O)cc4ccccc34)c(F)c2n1 [P-0103, (1R,5S)-3-(8-fluoro-7-(3-hydroxynaphthalen-1-yl)-2-(((S)-1-methylpyrrolidin-2-yl)methoxy)quinazolin-4-yl)-3,8-diazabicyclo[3.2.1]octane-8-carboxamide]
9 | 0.0001 to 10 | 0.0001 to 10 | 0.0001 to 10 | CN1CCC[C@H]1COc1nc(N2C[C@H]3CC[C@@H](C2)N3C(=O)NC2CCNC2)c2ccc(-c3cc(O)cc4ccccc34)c(F)c2n1 (stereo partly drawn) [P-0106, (1R,5S)-3-(8-fluoro-7-(3-hydroxynaphthalen-1-yl)-2-(((S)-1-methylpyrrolidin-2-yl)methoxy)quinazolin-4-yl)-N-(pyrrolidin-3-yl)-3,8-diazabicyclo[3.2.1]octane-8-carboxamide]
10 | 0.0001 to 10 | 0.0001 to 10 | 0.0001 to 10 | O=C(CC1CCNC1)N1[C@@H]2CC[C@H]1CN(c1nc(OCC34CCCN3CCC4)nc3cc(-c4cc(O)cc5ccccc45)ccc13)C2 (stereo partly drawn) [P-0110, 1-((1R,5S)-3-(7-(3-hydroxynaphthalen-1-yl)-2-((tetrahydro-1H-pyrrolizin-7a(5H)-yl)methoxy)quinazolin-4-yl)-3,8-diazabicyclo[3.2.1]octan-8-yl)-2-(pyrrolidin-3-yl)ethan-1-one]
11 | 0.0001 to 10 | 0.0001 to 10 | 10 to 100 | CN1CCC[C@H]1COc1nc(N2CC3CCC(C2)N3C(=O)Cc2ccc(N)cc2)c2ccc(-c3cc(O)cc4ccccc34)cc2n1 [P-0115]

The remaining lines, values behind:

Row | Compound | IC50 [1] [µM] | IC50 [2] [µM] | IC50 [3] [µM]
12 | Oc1cccc(F)c1-c1ccc2c(N3C[C@H]4CC[C@@H](C3)N4)nc(OCC34CCCN3CCC4)nc2c1F [P-0049, 2-(4-((1R,5S)-3,8-diazabicyclo[3.2.1]octan-3-yl)-8-fluoro-2-((tetrahydro-1H-pyrrolizin-7a(5H)-yl)methoxy)quinazolin-7-yl)-3-fluorophenol] | 0.0001 to 10 | 10 to 100 | 100 to 1000
13 | Oc1cc(-c2ccc3c(C4C[C@H]5CC[C@@H](C4)N5)nc(OCC45CCCN4CCC5)nc3c2)c2ccccc2c1 (stereo partly drawn) [P-0053, 4-(4-((1R,5S)-8-azabicyclo[3.2.1]octan-3-yl)-2-((tetrahydro-1H-pyrrolizin-7a(5H)-yl)methoxy)quinazolin-7-yl)naphthalen-2-ol] | 0.0001 to 10 | 10 to 100 | 10 to 100
14 | Oc1cc(-c2ncc3c(N4C[C@H]5CC[C@@H](C4)N5)nc(OCC45CCCN4CCC5)nc3c2F)c2ccccc2c1 [P-0055, 4-(4-((1R,5S)-3,8-diazabicyclo[3.2.1]octan-3-yl)-8-fluoro-2-((tetrahydro-1H-pyrrolizin-7a(5H)-yl)methoxy)pyrido[4,3-d]pyrimidin-7-yl)naphthalen-2-ol] | 0.0001 to 10 | 0.0001 to 10 | 0.0001 to 10
15 | CN1CCC[C@H]1COc1nc(N2C[C@H]3CC[C@@H](C2)N3)c2cc(CO)c(-c3cc(O)cc4ccccc34)c(F)c2n1 [P-0056, 4-[4-(3,8-diazabicyclo[3.2.1]octan-3-yl)-8-fluoro-6-(hydroxymethyl)-2-[[(2S)-1-methylpyrrolidin-2-yl]methoxy]quinazolin-7-yl]naphthalen-2-ol] | 0.0001 to 10 | 0.0001 to 10 | 0.0001 to 10
16 | CO[C@@H]1C[C@@H](COc2nc(N3C[C@H]4CC[C@@H](C3)N4)c3ccc(-c4cc(O)cc5ccccc45)cc3n2)N(C)C1 [P-0060, 4-(4-((1R,5S)-3,8-diazabicyclo[3.2.1]octan-3-yl)-2-(((2S,4R)-4-methoxy-1-methylpyrrolidin-2-yl)methoxy)quinazolin-7-yl)naphthalen-2-ol] | 0.0001 to 10 | 0.0001 to 10 | 0.0001 to 10
17 | CCC(=O)N1[C@@H]2CC[C@H]1CN(c1nc(OCC34CCCN3CCC4)nc3cc(-c4cc(O)cc5ccccc45)ccc13)C2 [P-0063, 1-((1R,5S)-3-(7-(3-hydroxynaphthalen-1-yl)-2-((tetrahydro-1H-pyrrolizin-7a(5H)-yl)methoxy)quinazolin-4-yl)-3,8-diazabicyclo[3.2.1]octan-8-yl)propan-1-one] | 0.0001 to 10 | 0.0001 to 10 | 0.0001 to 10
18 | O=C(O)CCC(=O)N1[C@@H]2CC[C@H]1CN(c1nc(OCC34CCCN3CCC4)nc3cc(-c4cc(O)cc5ccccc45)ccc13)C2 [P-0064, 4-((1R,5S)-3-(7-(3-hydroxynaphthalen-1-yl)-2-((tetrahydro-1H-pyrrolizin-7a(5H)-yl)methoxy)quinazolin-4-yl)-3,8-diazabicyclo[3.2.1]octan-8-yl)-4-oxobutanoic acid] | 0.0001 to 10 | 0.0001 to 10 | 0.0001 to 10
19 | O=C(c1ccccn1)N1[C@@H]2CC[C@H]1CN(c1nc(OCC34CCCN3CCC4)nc3cc(-c4cc(O)cc5ccccc45)ccc13)C2 [P-0065, ((1R,5S)-3-(7-(3-hydroxynaphthalen-1-yl)-2-((tetrahydro-1H-pyrrolizin-7a(5H)-yl)methoxy)quinazolin-4-yl)-3,8-diazabicyclo[3.2.1]octan-8-yl)(pyridin-2-yl)methanone] | 10 to 100 | 0.0001 to 10 | 0.0001 to 10
20 | CN(C)CC(=O)N1[C@@H]2CC[C@H]1CN(c1nc(OCC34CCCN3CCC4)nc3cc(-c4cc(O)cc5ccccc45)ccc13)C2 [P-0066, 2-(dimethylamino)-1-((1R,5S)-3-(7-(3-hydroxynaphthalen-1-yl)-2-((tetrahydro-1H-pyrrolizin-7a(5H)-yl)methoxy)quinazolin-4-yl)-3,8-diazabicyclo[3.2.1]octan-8-yl)ethan-1-one] | 0.0001 to 10 | 0.0001 to 10 | 0.0001 to 10
21 | NC(=O)N1[C@@H]2CC[C@H]1CN(c1nc(OCC34CCCN3CCC4)nc3cc(-c4cc(O)cc5ccccc45)ccc13)C2 [P-0067, (1R,5S)-3-(7-(3-hydroxynaphthalen-1-yl)-2-((tetrahydro-1H-pyrrolizin-7a(5H)-yl)methoxy)quinazolin-4-yl)-3,8-diazabicyclo[3.2.1]octane-8-carboxamide] | 0.0001 to 10 | 0.0001 to 10 | 0.0001 to 10

From patent US20230081426A1, “COMPOUNDS AND METHODS FOR KRAS MODULATION AND INDICATIONS THEREFOR” (Plexxikon Inc., priority 2020, published 2023)
